Tested on: hypertensive subjects
Experiment: Adverse events (TEAEs, SAEs, AESI, study drug discontinuation, dose modification);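 further: counts of spontaneously reported adverse events in the Safety Analysis Set, subjects grouped by treatment actually received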
Format: in vivo, human
Settings: Part 1
Source text: In analyses performed on the Safety Analysis Set, subjects will be analyzed according to their actual treatment received.

CC(=O)N[C@H]1CC[C@H](NC(=O)CN2CCN(c3nncc(-c4ccc(C)cc4)n3)CC2)CC1 [Compound A HBr]
On-treatment TEAE: General disorders and administration site conditions (50 mg QD (N = 28)): 2 (7.1) n (%)
On-treatment TEAE: General disorders and administration site conditions, Mild (50 mg QD (N = 28)): 1 (3.6) n (%)
On-treatment TEAE: Glomerular filtration rate decreased (50 mg QD (N = 28)): 0 n (%)
On-treatment TEAE: Headache (50 mg QD (N = 28)): 1 (3.6) n (%)
On-treatment TEAE: Headache, Mild (50 mg QD (N = 28)): 1 (3.6) n (%)
On-treatment TEAE: Hyperkalaemia (50 mg QD (N = 28)): 3 (10.7) n (%)
On-treatment TEAE: Hyperkalaemia, Mild (50 mg QD (N = 28)): 3 (10.7) n (%)
On-treatment TEAE: Hyperkalaemia, Moderate (50 mg QD (N = 28)): 0 n (%)
On-treatment TEAE: Hyperkalaemia, Severe (50 mg QD (N = 28)): 0 n (%)
On-treatment TEAE: Hypertension (50 mg QD (N = 28)): 2 (7.1) n (%)
On-treatment TEAE: Hypertension, Moderate (50 mg QD (N = 28)): 2 (7.1) n (%)
On-treatment TEAE: Infections and infestations (50 mg QD (N = 28)): 2 (7.1) n (%)
On-treatment TEAE: Infections and infestations, Mild (50 mg QD (N = 28)): 0 n (%)
On-treatment TEAE: Infections and infestations, Moderate (50 mg QD (N = 28)): 2 (7.1) n (%)
On-treatment TEAE: Investigations (50 mg QD (N = 28)): 1 (3.6) n (%)
On-treatment TEAE: Investigations, Mild (50 mg QD (N = 28)): 1 (3.6) n (%)
On-treatment TEAE: Investigations, Moderate (50 mg QD (N = 28)): 0 n (%)
On-treatment TEAE: Metabolism and nutrition disorders (50 mg QD (N = 28)): 5 (17.9) n (%)
On-treatment TEAE: Metabolism and nutrition disorders, Mild (50 mg QD (N = 28)): 5 (17.9) n (%)
On-treatment TEAE: Metabolism and nutrition disorders, Moderate (50 mg QD (N = 28)): 0 n (%)
On-treatment TEAE: Nervous system disorders (50 mg QD (N = 28)): 2 (7.1) n (%)
On-treatment TEAE: Nervous system disorders, Mild (50 mg QD (N = 28)): 1 (3.6) n (%)
On-treatment TEAE: Orthostatic hypotension (50 mg QD (N = 28)): 0 n (%)
On-treatment TEAE: Orthostatic hypotension, Mild (50 mg QD (N = 28)): 0 n (%)
On-treatment TEAE: Psychiatric disorders (50 mg QD (N = 28)): 0 n (%)
On-treatment TEAE: Psychiatric disorders, Moderate (50 mg QD (N = 28)): 0 n (%)
On-treatment TEAE: Urinary tract infection (50 mg QD (N = 28)): 2 (7.1) n (%)
On-treatment TEAE: Urinary tract infection, Mild (50 mg QD (N = 28)): 1 (3.6) n (%)
On-treatment TEAE: Vascular disorders (50 mg QD (N = 28)): 2 (7.1) n (%)
On-treatment TEAE: Vascular disorders, Mild (50 mg QD (N = 28)): 0 n (%)
On-treatment TEAE: Vascular disorders, Moderate (50 mg QD (N = 28)): 2 (7.1) n (%)
On-treatment TEAE: any, Mild (50 mg QD (N = 28)): 4 (14.3) n (%)
On-treatment TEAE: any, Moderate (50 mg QD (N = 28)): 6 (21.4) n (%)
On-treatment TEAE: any, Severe (50 mg QD (N = 28)): 0 n (%)
Subjects with any On-treatment TEAEs leading to withdrawal from study drug (50 mg QD (N = 28)): 0 n (%)
TEAE leading to permanent discontinuation from study drug: Activated partial thromboplastin time prolonged (50 mg QD (N = 28)): 0 n (%)
TEAE leading to permanent discontinuation from study drug: Cardiac disorders (50 mg QD (N = 28)): 0 n (%)
TEAE leading to permanent discontinuation from study drug: Coronary artery disease (50 mg QD (N = 28)): 0 n (%)
TEAE leading to permanent discontinuation from study drug: Dizziness (50 mg QD (N = 28)): 0 n (%)
TEAE leading to permanent discontinuation from study drug: Hyperkalaemia (50 mg QD (N = 28)): 0 n (%)
TEAE leading to permanent discontinuation from study drug: Hypertension (50 mg QD (N = 28)): 0 n (%)
TEAE leading to permanent discontinuation from study drug: Hypotension (50 mg QD (N = 28)): 0 n (%)
TEAE leading to permanent discontinuation from study drug: Investigations (50 mg QD (N = 28)): 0 n (%)
TEAE leading to permanent discontinuation from study drug: Metabolism and nutrition disorders (50 mg QD (N = 28)): 0 n (%)
TEAE leading to permanent discontinuation from study drug: Nervous system disorders (50 mg QD (N = 28)): 0 n (%)
TEAE leading to permanent discontinuation from study drug: Orthostatic hypotension (50 mg QD (N = 28)): 0 n (%)
TEAE leading to permanent discontinuation from study drug: Vascular disorders (50 mg QD (N = 28)): 0 n (%)
On-treatment TEAE: Blood and lymphatic system disorders (100 mg QD (N = 30)): 0 n (%)
On-treatment TEAE: Blood and lymphatic system disorders, Mild (100 mg QD (N = 30)): 0 n (%)
On-treatment TEAE: Blood creatinine increased (100 mg QD (N = 30)): 3 (10.0) n (%)
On-treatment TEAE: Blood creatinine increased, Mild (100 mg QD (N = 30)): 3 (10.0) n (%)
On-treatment TEAE: Cardiac disorders (100 mg QD (N = 30)): 0 n (%)
On-treatment TEAE: Cortisol decreased (100 mg QD (N = 30)): 0 n (%)
On-treatment TEAE: Cortisol decreased, Mild (100 mg QD (N = 30)): 0 n (%)
On-treatment TEAE: Dizziness (100 mg QD (N = 30)): 0 n (%)
On-treatment TEAE: Gastrointestinal disorders (100 mg QD (N = 30)): 2 (6.7) n (%)
On-treatment TEAE: Gastrointestinal disorders, Mild (100 mg QD (N = 30)): 2 (6.7) n (%)
On-treatment TEAE: General disorders and administration site conditions (100 mg QD (N = 30)): 0 n (%)
On-treatment TEAE: General disorders and administration site conditions, Mild (100 mg QD (N = 30)): 0 n (%)
On-treatment TEAE: Glomerular filtration rate decreased (100 mg QD (N = 30)): 5 (16.7) n (%)
On-treatment TEAE: Headache (100 mg QD (N = 30)): 0 n (%)
On-treatment TEAE: Headache, Mild (100 mg QD (N = 30)): 0 n (%)
On-treatment TEAE: Hyperkalaemia (100 mg QD (N = 30)): 8 (26.7) n (%)
On-treatment TEAE: Hyperkalaemia, Mild (100 mg QD (N = 30)): 8 (26.7) n (%)
On-treatment TEAE: Hyperkalaemia, Moderate (100 mg QD (N = 30)): 0 n (%)
On-treatment TEAE: Hyperkalaemia, Severe (100 mg QD (N = 30)): 0 n (%)
On-treatment TEAE: Hypertension (100 mg QD (N = 30)): 0 n (%)
On-treatment TEAE: Hypertension, Moderate (100 mg QD (N = 30)): 0 n (%)
On-treatment TEAE: Infections and infestations (100 mg QD (N = 30)): 2 (6.7) n (%)
On-treatment TEAE: Infections and infestations, Mild (100 mg QD (N = 30)): 0 n (%)
On-treatment TEAE: Infections and infestations, Moderate (100 mg QD (N = 30)): 2 (6.7) n (%)
On-treatment TEAE: Investigations (100 mg QD (N = 30)): 8 (26.7) n (%)
On-treatment TEAE: Investigations, Mild (100 mg QD (N = 30)): 6 (20.0) n (%)
On-treatment TEAE: Investigations, Moderate (100 mg QD (N = 30)): 2 (6.7) n (%)
On-treatment TEAE: Metabolism and nutrition disorders (100 mg QD (N = 30)): 8 (26.7) n (%)
On-treatment TEAE: Metabolism and nutrition disorders, Mild (100 mg QD (N = 30)): 8 (26.7) n (%)
On-treatment TEAE: Metabolism and nutrition disorders, Moderate (100 mg QD (N = 30)): 0 n (%)
On-treatment TEAE: Nervous system disorders (100 mg QD (N = 30)): 0 n (%)
On-treatment TEAE: Nervous system disorders, Mild (100 mg QD (N = 30)): 0 n (%)
On-treatment TEAE: Orthostatic hypotension (100 mg QD (N = 30)): 0 n (%)
On-treatment TEAE: Orthostatic hypotension, Mild (100 mg QD (N = 30)): 0 n (%)
On-treatment TEAE: Psychiatric disorders (100 mg QD (N = 30)): 2 (6.7) n (%)
On-treatment TEAE: Psychiatric disorders, Moderate (100 mg QD (N = 30)): 2 (6.7) n (%)
On-treatment TEAE: Urinary tract infection (100 mg QD (N = 30)): 1 (3.3) n (%)
On-treatment TEAE: Urinary tract infection, Mild (100 mg QD (N = 30)): 0 n (%)
On-treatment TEAE: Vascular disorders (100 mg QD (N = 30)): 1 (3.3) n (%)
On-treatment TEAE: Vascular disorders, Mild (100 mg QD (N = 30)): 0 n (%)
On-treatment TEAE: Vascular disorders, Moderate (100 mg QD (N = 30)): 1 (3.3) n (%)
On-treatment TEAE: any, Mild (100 mg QD (N = 30)): 9 (30.0) n (%)
On-treatment TEAE: any, Moderate (100 mg QD (N = 30)): 7 (23.3) n (%)
On-treatment TEAE: any, Severe (100 mg QD (N = 30)): 0 n (%)
Subjects with any On-treatment TEAEs leading to withdrawal from study drug (100 mg QD (N = 30)): 4 (13.3) n (%)
TEAE leading to permanent discontinuation from study drug: Activated partial thromboplastin time prolonged (100 mg QD (N = 30)): 1 (3.3) n (%)
TEAE leading to permanent discontinuation from study drug: Cardiac disorders (100 mg QD (N = 30)): 0 n (%)
TEAE leading to permanent discontinuation from study drug: Coronary artery disease (100 mg QD (N = 30)): 0 n (%)
TEAE leading to permanent discontinuation from study drug: Dizziness (100 mg QD (N = 30)): 0 n (%)
TEAE leading to permanent discontinuation from study drug: Hyperkalaemia (100 mg QD (N = 30)): 2 (6.7) n (%)
TEAE leading to permanent discontinuation from study drug: Hypertension (100 mg QD (N = 30)): 0 n (%)
TEAE leading to permanent discontinuation from study drug: Hypotension (100 mg QD (N = 30)): 1 (3.3) n (%)
TEAE leading to permanent discontinuation from study drug: Investigations (100 mg QD (N = 30)): 1 (3.3) n (%)
TEAE leading to permanent discontinuation from study drug: Metabolism and nutrition disorders (100 mg QD (N = 30)): 2 (6.7) n (%)
TEAE leading to permanent discontinuation from study drug: Nervous system disorders (100 mg QD (N = 30)): 0 n (%)
